Experimental data published in ChEMBL document CHEMBL1201862, “PubChem BioAssay data set” (2004).
Activity calls are given as the source filed them.

Columns and labels:
Melanocortin receptor 4 = Melanocortin receptor 4 (Homo sapiens, UniProt P32245); assay: MC4R antagonist potency on cAMP, dose response, cell-based, TR-FRET, biased antagonists (AID 602298); type: functional;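 also: antagonist potency against agonist-stimulated cAMP production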
[1] = nonselective inhibitors of cellular cAMP signaling, dose response, counter-screen for MC4R biased antagonist project, cell-based, TR-FRET cAMP detection (AID 602305); type: functional;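 also: U2OS cells stimulated with forskolin near its EC80 as the cAMP inducer; potency is for inhibition of forskolin-stimulated cAMP signaling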
HEK293 = assay: inhibitors of LMP1-driven NF-kB reporter, dose response, cell-based, HEK293, luciferase, cherry-pick (AID 588343); type: functional; settings: Homo sapiens
[2] = biological target: Latent membrane protein 1 (Human herpesvirus 4 (strain B95-8), UniProt P03230); assay: TES1-eGFP NF-kB reporter inhibition versus Tet-On dsRED, dose response, selectivity assay for LMP1 NF-kB inhibitor project, imaging, HEK293T, dual-color eGFP/dsRED, cherry-picks (AID 588398); type: functional, cell-based
Sequence of Latent membrane protein 1 (P03230 whole entry): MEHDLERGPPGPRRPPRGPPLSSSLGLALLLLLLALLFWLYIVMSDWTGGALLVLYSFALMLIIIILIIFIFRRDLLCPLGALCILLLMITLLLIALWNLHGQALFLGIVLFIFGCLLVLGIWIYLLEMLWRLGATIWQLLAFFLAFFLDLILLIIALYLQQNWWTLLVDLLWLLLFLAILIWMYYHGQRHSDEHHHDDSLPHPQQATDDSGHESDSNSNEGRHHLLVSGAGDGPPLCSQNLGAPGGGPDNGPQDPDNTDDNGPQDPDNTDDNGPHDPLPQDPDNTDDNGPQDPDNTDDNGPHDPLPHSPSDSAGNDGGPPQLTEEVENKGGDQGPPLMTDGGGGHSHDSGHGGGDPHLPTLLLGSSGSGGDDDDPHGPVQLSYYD

[3] = biological target: Serine/threonine-protein kinase pim-1 (Homo sapiens, UniProt P11309); type: functional
[4] = biological target: Cell division cycle 7-related protein kinase (Homo sapiens, UniProt O00311); type: functional;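 also: value obtained from a kinome-wide kinase panel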
Sequence of Cell division cycle 7-related protein kinase (O00311 whole entry): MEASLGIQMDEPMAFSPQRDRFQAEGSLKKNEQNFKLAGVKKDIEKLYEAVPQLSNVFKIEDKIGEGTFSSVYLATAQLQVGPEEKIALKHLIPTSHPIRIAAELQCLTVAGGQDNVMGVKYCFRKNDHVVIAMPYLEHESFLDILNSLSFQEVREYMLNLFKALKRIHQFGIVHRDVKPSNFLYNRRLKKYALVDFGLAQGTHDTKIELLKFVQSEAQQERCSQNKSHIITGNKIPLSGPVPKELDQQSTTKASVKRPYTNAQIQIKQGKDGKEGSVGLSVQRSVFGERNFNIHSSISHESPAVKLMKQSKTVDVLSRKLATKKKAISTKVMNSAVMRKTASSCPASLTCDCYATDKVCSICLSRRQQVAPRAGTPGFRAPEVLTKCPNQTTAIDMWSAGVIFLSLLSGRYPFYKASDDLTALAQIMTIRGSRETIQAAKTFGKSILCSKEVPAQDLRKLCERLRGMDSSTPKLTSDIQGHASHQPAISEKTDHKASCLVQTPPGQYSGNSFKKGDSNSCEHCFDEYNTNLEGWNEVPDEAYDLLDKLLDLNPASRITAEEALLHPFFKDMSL

[5] = biological target: Homeodomain-interacting protein kinase 2 (Homo sapiens, UniProt Q9H2X6); type: functional;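 also: measured within a kinome-wide kinase profiling panel, HIPK2 being one panel member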
[6] = biological target: Interleukin-1 receptor-associated kinase 4 (Homo sapiens, UniProt Q9NWZ3); type: functional
[7] = biological target: Glycogen synthase kinase-3 beta (Homo sapiens, UniProt P49841); type: functional;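 also: value comes from a broad kinome profiling panel, with GSK3B as the panel member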
[8] = biological target: cAMP-dependent protein kinase catalytic subunit alpha (Homo sapiens, UniProt P17612); type: functional
[9] = biological target: Dual specificity protein kinase CLK4 (Homo sapiens, UniProt Q9HAZ1); type: functional
Sequence of Dual specificity protein kinase CLK4 (Q9HAZ1 whole entry): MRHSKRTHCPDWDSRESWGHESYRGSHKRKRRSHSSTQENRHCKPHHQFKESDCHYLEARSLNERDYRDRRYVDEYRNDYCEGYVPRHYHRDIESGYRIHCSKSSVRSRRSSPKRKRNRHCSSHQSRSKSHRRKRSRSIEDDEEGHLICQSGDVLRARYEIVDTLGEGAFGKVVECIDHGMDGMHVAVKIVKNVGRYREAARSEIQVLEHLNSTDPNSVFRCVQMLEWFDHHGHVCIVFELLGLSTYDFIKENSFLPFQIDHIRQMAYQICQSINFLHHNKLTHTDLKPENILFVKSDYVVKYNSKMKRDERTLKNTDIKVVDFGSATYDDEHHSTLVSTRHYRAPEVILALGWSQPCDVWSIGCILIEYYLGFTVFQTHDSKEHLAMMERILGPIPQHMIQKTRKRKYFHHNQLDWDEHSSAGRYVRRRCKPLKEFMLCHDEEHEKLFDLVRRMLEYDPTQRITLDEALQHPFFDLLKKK

[10] = biological target: Mitogen-activated protein kinase kinase kinase kinase 4 (Homo sapiens, UniProt O95819); type: functional
Sequence of Mitogen-activated protein kinase kinase kinase kinase 4 (O95819 whole entry, the tested form may be a part): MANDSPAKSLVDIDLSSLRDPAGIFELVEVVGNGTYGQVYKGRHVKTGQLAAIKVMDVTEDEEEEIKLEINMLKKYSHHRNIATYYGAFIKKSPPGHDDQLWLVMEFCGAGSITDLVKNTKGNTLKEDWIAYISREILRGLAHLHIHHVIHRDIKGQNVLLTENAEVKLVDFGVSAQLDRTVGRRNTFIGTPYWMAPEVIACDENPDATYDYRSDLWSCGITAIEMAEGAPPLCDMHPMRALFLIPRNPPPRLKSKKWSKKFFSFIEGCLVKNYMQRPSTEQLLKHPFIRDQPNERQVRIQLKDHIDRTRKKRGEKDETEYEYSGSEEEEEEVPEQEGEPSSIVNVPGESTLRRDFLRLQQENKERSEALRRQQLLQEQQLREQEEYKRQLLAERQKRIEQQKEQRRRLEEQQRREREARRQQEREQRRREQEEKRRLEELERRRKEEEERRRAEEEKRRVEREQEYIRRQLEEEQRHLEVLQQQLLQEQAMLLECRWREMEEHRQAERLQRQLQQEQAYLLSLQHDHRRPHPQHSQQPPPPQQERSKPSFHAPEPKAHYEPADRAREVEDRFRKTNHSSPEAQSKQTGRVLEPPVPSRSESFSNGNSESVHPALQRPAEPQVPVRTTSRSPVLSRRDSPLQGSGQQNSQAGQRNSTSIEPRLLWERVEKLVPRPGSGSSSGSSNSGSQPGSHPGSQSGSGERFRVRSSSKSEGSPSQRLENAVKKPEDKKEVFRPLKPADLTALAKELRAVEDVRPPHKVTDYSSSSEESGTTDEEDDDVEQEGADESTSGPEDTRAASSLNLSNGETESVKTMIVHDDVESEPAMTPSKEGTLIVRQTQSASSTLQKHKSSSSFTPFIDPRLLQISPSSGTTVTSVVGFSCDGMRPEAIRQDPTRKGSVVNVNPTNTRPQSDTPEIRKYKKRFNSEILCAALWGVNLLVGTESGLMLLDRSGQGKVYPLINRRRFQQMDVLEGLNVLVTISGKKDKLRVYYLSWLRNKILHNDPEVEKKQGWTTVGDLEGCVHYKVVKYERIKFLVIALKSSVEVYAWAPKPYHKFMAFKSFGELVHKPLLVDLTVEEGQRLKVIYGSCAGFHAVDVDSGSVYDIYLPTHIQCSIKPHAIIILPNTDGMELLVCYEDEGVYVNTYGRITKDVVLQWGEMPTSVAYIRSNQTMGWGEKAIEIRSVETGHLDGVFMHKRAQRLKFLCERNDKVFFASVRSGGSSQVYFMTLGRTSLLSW

CHO = assay: cytotoxicity in TLR9-MyD88 CHO cells, dose response, cytotoxicity control for TLR9-MyD88 binding inhibitor project, cell-based, luminescence (AID 588339); type: functional, hamster; settings: Cricetulus griseus;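 also: CHO cells stably coexpressing TLR9 and MyD88 fusions from primary screen; compound exposure lasted 48 hours before viability readout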
Beta Lactamase = Beta Lactamase (Pseudomonas aeruginosa, UniProt Q932Y6); assay: beta-lactamase reporter inhibitor potency, dose response, artefact control for TLR9-MyD88 binding inhibitor project, BLA reporter cells, FRET fluorescence (AID 588341); type: cell-based;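 also: cell based assay in CHO-K1 cells stably expressing beta-lactamase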
Sequence of Beta Lactamase (Q932Y6 whole entry): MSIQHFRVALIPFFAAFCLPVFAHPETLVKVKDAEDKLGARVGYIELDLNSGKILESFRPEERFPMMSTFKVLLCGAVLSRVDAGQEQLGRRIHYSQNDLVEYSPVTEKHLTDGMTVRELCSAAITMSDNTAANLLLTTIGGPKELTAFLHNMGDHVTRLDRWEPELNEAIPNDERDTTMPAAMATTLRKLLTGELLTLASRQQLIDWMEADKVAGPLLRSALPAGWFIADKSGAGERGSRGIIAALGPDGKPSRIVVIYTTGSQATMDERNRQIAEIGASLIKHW

[11] = biological target: T1, Corticotropin-releasing factor receptor 2/Corticotropin-releasing factor-binding protein (Homo sapiens, UniProt P24387+Q13324); assay: activators of CRF receptor 2 with binding protein – uHTS hits, confirmation (AID 602473); type: functional; settings: read-out: EC50_Mean
T1 sequence (Q13324 whole entry): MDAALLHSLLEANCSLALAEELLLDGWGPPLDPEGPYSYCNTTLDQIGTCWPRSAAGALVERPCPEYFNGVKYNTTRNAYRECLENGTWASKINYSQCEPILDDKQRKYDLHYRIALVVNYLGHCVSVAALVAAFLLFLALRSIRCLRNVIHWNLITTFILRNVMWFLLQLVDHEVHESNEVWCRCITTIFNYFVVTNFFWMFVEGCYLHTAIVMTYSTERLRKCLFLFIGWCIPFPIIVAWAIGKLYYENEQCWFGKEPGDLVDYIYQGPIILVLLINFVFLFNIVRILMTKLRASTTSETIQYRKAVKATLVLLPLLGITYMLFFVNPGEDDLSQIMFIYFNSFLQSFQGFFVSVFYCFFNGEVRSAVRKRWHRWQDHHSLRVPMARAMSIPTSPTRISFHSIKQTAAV
T1 sequence (P24387 whole entry): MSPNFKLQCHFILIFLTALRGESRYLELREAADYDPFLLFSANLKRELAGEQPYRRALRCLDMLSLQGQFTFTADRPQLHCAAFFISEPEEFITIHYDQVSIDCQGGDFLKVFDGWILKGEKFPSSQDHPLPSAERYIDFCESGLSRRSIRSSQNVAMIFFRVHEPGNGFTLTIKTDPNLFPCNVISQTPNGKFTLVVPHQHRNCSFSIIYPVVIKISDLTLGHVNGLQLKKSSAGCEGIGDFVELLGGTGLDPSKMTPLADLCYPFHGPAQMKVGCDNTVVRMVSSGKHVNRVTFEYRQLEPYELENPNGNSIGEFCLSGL

[12] = biological target: T2, Sentrin-specific protease 8 (Homo sapiens, UniProt Q96LD8); assay: SENP8 protease inhibitors, SAR follow-up, biochemical, luminescence (AID 504501); type: functional
T2 sequence (Q96LD8 whole entry): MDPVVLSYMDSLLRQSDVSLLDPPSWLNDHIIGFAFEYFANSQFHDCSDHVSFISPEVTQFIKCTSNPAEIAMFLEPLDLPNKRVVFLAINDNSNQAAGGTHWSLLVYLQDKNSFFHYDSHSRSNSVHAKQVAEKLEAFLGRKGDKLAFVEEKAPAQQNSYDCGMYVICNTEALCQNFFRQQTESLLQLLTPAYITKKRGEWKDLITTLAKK

Caspase-3 = biological target: T3, Caspase-3 (Homo sapiens, UniProt P42574); assay: SAR Analysis of small molecule inhibitors of Sentrin-specific proteases (SENPs) using a Caspase-3 Selectivity assay. [Related pubchem assays (depositor defined):AID2540, AID2599, AID434973, AID489001]; type: functional
T3 sequence (P42574 whole entry): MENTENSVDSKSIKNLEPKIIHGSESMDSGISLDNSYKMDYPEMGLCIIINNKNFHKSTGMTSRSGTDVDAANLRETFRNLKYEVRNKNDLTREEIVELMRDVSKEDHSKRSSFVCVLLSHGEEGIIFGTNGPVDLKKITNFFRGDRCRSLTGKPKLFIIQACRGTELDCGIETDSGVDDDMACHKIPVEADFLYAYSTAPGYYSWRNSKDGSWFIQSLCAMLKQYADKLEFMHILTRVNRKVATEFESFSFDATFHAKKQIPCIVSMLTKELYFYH

[13] = biological target: T4, Sentrin-specific protease 6 (Homo sapiens, UniProt Q9GZR1); assay: SAR Analysis of small molecule inhibitors of Sentrin-specific protease 6 (SENP6) using a Luminescent assay. [Related pubchem assays (depositor defined):AID2582, AID2599]; type: functional
T4 sequence (Q9GZR1 whole entry): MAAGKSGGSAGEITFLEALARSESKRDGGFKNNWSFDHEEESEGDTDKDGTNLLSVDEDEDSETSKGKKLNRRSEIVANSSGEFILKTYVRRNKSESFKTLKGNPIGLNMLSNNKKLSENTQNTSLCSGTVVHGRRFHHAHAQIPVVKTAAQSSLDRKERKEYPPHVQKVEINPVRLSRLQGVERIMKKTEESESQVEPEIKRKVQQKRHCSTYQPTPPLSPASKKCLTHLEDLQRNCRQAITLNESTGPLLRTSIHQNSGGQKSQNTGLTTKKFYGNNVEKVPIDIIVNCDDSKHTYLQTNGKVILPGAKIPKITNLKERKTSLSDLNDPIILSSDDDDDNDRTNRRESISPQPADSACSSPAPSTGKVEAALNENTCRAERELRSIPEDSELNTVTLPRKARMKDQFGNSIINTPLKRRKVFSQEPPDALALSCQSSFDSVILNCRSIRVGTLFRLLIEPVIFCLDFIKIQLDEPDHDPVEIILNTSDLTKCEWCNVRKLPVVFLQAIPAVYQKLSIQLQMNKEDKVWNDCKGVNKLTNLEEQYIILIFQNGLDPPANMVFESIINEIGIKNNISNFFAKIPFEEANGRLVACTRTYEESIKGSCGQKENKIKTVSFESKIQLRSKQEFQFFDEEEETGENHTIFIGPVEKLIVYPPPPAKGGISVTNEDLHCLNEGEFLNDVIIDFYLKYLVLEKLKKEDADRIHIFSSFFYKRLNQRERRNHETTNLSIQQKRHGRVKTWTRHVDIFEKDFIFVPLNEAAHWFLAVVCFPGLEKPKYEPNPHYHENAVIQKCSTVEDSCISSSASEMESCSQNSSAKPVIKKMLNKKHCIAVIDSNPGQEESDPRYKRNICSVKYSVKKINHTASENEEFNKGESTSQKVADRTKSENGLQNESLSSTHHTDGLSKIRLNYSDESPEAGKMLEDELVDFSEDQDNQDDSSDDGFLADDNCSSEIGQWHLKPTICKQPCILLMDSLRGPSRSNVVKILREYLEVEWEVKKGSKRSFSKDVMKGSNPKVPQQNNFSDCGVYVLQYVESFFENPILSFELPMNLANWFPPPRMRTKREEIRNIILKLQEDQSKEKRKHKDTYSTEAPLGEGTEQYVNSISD

[14] = biological target: T5, Sentrin-specific protease 7 (Homo sapiens, UniProt Q9BQF6); assay: SENP7 protease inhibitors, SAR follow-up, biochemical, luminescence (AID 504497); type: functional
T5 sequence (Q9BQF6 whole entry): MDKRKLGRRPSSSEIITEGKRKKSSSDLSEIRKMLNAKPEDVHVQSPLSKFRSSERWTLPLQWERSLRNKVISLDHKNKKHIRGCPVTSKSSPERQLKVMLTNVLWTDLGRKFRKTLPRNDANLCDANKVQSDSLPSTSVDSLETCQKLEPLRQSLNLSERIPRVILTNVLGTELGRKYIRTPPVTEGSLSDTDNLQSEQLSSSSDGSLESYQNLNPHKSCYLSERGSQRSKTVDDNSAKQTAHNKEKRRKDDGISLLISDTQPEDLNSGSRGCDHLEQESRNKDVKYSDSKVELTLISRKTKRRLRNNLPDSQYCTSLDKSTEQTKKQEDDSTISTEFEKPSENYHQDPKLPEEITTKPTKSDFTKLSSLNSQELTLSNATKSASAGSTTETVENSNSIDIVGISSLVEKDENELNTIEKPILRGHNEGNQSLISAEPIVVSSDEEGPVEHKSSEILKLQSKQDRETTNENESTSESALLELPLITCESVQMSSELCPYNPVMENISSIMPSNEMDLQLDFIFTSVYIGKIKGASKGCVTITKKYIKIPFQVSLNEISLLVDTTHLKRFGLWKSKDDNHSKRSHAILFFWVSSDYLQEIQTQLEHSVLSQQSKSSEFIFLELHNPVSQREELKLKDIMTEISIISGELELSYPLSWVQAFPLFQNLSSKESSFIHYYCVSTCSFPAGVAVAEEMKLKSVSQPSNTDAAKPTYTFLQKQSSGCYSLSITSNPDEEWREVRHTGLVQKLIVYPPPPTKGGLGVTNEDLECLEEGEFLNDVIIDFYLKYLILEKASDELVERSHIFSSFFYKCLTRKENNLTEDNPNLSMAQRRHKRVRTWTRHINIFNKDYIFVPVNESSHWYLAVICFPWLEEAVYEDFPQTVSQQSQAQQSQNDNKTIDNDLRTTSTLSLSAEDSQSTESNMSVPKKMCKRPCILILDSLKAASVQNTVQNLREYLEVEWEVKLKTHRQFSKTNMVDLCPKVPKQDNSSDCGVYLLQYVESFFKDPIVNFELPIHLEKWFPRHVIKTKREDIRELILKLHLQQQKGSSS

LIM domain kinase 1 = LIM domain kinase 1 (Homo sapiens, UniProt P53667); assay: Navigating the Kinome. Panel member name: LIMK1; type: functional
[15] = biological target: Serine/threonine-protein kinase Chk1 (Homo sapiens, UniProt O14757); type: functional;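 also: measured as one member of a kinome-wide kinase profiling panel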
Sequence of Serine/threonine-protein kinase Chk1 (O14757 whole entry): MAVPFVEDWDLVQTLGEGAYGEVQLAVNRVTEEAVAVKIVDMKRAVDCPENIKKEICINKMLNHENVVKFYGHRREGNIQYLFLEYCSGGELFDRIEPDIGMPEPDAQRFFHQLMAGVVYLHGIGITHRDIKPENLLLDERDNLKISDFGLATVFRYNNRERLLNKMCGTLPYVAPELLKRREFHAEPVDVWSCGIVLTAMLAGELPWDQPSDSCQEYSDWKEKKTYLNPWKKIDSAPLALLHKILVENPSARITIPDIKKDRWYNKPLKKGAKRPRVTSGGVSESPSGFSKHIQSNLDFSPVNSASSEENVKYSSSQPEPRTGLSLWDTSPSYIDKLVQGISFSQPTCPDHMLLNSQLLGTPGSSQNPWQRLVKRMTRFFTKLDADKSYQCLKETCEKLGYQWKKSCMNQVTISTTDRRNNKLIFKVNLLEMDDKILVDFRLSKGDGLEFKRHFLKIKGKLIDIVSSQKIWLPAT

[16] = biological target: Melanin-concentrating hormone receptor 1 (Homo sapiens, UniProt Q99705); assay: Late-stage fluorescence-based counterscreen for antagonists of the G-protein coupled receptor 7 (GPR7): cell-based dose response assay to identify antagonists of the melanin-concentrating hormone receptor 1 (MCHR1) Set 6.; type: functional
Sequence of Melanin-concentrating hormone receptor 1 (Q99705 whole entry): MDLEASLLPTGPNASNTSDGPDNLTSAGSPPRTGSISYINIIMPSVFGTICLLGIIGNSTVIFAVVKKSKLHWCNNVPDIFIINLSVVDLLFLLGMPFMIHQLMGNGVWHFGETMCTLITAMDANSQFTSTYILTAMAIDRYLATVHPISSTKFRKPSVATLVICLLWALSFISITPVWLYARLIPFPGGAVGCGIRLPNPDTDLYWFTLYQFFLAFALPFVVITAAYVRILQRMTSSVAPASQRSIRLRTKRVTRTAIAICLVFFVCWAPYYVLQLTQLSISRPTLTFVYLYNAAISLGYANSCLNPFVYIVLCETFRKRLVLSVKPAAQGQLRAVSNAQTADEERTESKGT

[17] = biological target: T6, Neuropeptides B/W receptor type 1 (Homo sapiens, UniProt P48145); assay: GPR7 antagonist potency, late-stage follow-up, cell-based, fluorescence, dose response, set 6 (AID 588583); type: functional
T6 sequence (P48145 whole entry): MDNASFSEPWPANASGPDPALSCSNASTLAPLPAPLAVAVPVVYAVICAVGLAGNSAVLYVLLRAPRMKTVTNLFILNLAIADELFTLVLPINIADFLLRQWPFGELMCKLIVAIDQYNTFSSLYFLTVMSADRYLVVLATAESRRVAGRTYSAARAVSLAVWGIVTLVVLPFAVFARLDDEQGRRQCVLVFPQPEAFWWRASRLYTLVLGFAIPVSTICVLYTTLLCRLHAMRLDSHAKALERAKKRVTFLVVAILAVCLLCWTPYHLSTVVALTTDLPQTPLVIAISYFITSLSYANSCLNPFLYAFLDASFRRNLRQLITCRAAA

[18] = biological target: Tyrosine-protein kinase JAK2 (Homo sapiens, UniProt O60674); type: functional;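 also: JAK2 tested as one member of a kinase panel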
[19] = biological target: Vascular endothelial growth factor receptor 2 (Homo sapiens, UniProt P35968); type: functional
[20] = biological target: cAMP-dependent protein kinase catalytic subunit PRKX (Homo sapiens, UniProt P51817); type: functional
Sequence of cAMP-dependent protein kinase catalytic subunit PRKX (P51817 whole entry): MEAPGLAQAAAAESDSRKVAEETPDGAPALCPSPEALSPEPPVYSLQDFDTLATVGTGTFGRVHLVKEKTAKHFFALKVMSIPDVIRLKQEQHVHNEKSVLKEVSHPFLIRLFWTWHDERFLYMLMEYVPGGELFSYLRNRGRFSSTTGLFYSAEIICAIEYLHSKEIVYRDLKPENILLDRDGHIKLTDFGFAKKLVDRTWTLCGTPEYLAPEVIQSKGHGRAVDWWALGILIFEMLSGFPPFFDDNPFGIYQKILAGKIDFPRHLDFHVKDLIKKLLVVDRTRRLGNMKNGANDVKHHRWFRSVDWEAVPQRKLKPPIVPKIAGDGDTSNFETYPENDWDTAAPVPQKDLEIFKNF

[21] = biological target: Leucine-rich repeat serine/threonine-protein kinase 2 (Homo sapiens, UniProt Q5S007); type: functional;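 also: value from a broad kinome-wide panel profiling study in which LRRK2 was one of the kinases tested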
[22] = biological target: Leukocyte tyrosine kinase receptor (Homo sapiens, UniProt P29376); assay: Navigating the Kinome. Panel member name: LTK; type: functional
Sequence of Leukocyte tyrosine kinase receptor (P29376 whole entry): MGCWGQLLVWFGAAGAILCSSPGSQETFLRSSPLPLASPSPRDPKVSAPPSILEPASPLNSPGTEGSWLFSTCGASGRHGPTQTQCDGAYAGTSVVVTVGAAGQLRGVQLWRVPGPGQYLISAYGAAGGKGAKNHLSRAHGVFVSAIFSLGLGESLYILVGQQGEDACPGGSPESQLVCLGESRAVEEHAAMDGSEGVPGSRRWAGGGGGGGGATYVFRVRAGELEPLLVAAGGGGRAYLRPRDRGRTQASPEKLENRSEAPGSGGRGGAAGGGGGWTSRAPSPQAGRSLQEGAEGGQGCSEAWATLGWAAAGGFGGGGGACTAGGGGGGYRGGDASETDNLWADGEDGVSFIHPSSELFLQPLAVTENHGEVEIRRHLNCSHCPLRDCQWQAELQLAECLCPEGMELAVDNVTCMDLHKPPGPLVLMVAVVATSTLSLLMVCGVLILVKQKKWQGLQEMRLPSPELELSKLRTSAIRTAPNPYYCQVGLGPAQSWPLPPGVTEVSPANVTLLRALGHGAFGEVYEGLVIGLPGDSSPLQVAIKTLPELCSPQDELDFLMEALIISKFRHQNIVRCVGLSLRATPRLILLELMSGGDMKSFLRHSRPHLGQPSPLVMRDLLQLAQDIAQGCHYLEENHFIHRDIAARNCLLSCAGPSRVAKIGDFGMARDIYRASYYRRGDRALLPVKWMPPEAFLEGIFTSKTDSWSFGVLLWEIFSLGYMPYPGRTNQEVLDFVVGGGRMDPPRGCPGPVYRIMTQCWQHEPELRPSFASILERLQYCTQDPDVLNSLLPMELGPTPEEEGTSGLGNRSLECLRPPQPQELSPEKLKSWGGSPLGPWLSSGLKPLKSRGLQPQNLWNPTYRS

CN1CCC(Oc2ccccc2Sc2ccc(C(F)(F)F)cc2)CC1
IC50 (Melanocortin receptor 4): > 64.6 µM (inactive)
IC50 [1]: > 64.6 µM (inactive)

CC(=O)N1c2ccc(S(=O)(=O)N3CCC(C(=O)N4CCN(c5ccc(Cl)cc5)CC4)CC3)cc2CC1C (stereo not drawn)
AC50 (HEK293): 1.01 µM (active)
AC50 [2]: 108 µM (active)

CCCCNc1c(-c2ccc3[nH]ncc3c2)nc2ncccn12
Ki [3]: 0.501 µM (active)
Ki [4]: 0.01 µM (active)
Ki [5]: 0.1 µM (active)
Ki [6]: > 10 µM (inactive)
Ki [7]: 0.0158 µM (active)
Ki [8]: 1 µM (active)
Ki [9]: 0.00398 µM (active)
Ki [10]: 1.58 µM (active)

CC(O)CN(CC(C)O)c1ccc2c(c1)Cc1cc([N+](=O)[O-])ccc1-2 (stereo not drawn)
IC50 (CHO): > 49.8 µM (inactive)
IC50 (Beta Lactamase): 5.09 µM (active)
EC50 [11]: 0.87 µM (active)

Clc1ccc(/C=N/Nc2cc(N3CCOCC3)nc(N3CCOCC3)n2)c(Cl)c1
IC50 [12]: > 99 µM (inactive)
IC50 (Caspase-3): > 99 µM (inactive)
IC50 [13]: > 99 µM (inactive)
IC50 [14]: > 99 µM (inactive)

Clc1ccc2c(c1)NC1(CCCCC1)N2
Ki (LIM domain kinase 1): 2 µM (active)
Ki [15]: 2.51 µM (active)

COc1ccc(-c2c(Br)cnn(Cc3cccc4ccccc34)c2=O)cc1
IC50 [16]: 0.974 µM (active)
IC50 [17]: 0.974 µM (active)

CC(=O)c1c(C)c2cnc(Nc3ccc(N4CCNCC4)cn3)nc2n(C2CCCC2)c1=O [PALBOCICLIB]
Ki [18]: > 2.51 µM (inactive)
Ki [19]: > 2 µM (inactive)
Ki [20]: 2.51 µM (active)
Ki [21]: 2.51 µM (active)
Ki [22]: > 2.51 µM (inactive)
